The record followed here is PubChem BioAssay (NCI).

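Exposure lasted 48 hours, with cells grown in 96-well plates and compounds tested at five concentrations. Abbreviation: GI50, concentration required for 50% inhibition of growth. TGI: concentration producing complete growth inhibition.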

Among the test systems are MOLT-4 leukemia; MDA-MB-231 breast; TK-10 renal; HS 578T breast; OVCAR-5 ovarian; OVCAR-8 ovarian; HCT-116 colon; U251 CNS; T-47D breast; NCI-H522 lung.
Experiment in all cases: growth of human tumour cells (NCI), 48 h

In the case of `N#Cc1cccc(Nc2ncc(-c3ccccc3)o2)c1`, the GI50 in the experiment with MOLT-4 leukemia is over 25 µM; in the experiment on MDA-MB-231 breast it was 8.38 µM; in the experiment on TK-10 renal, 16.5 µM; with HS 578T breast, 8.52 µM; in the experiment on OVCAR-5 ovarian, 16.4 µM; in the experiment on OVCAR-8 ovarian, 16.7 µM. Moreover, the GI50 is 9.02 µM with HCT-116 colon, 10.6 µM with U251 CNS, 11.7 µM in the experiment on T-47D breast and 19.2 µM in the experiment with NCI-H522 lung. Also, the TGI in the experiment with MOLT-4 leukemia, in the experiment with MDA-MB-231 breast, in the experiment with TK-10 renal, with HS 578T breast, in the experiment on OVCAR-5 ovarian and in the experiment with OVCAR-8 ovarian was over 25 µM throughout. Further, the TGI with HCT-116 colon, in the experiment on U251 CNS, in the experiment on T-47D breast and with NCI-H522 lung was over 25 µM throughout.

As to `O=C1/C(=C/c2ccccc2O)N=C(c2ccccc2)N1c1cc(C(F)(F)F)ccc1Cl`, the GI50 with MOLT-4 leukemia is over 100 µM; with MDA-MB-231 breast, 20.7 µM; in the experiment on TK-10 renal it was 18.9 µM; with HS 578T breast, 22.8 µM; in the experiment with OVCAR-5 ovarian it was over 100 µM; in the experiment with OVCAR-8 ovarian, 46.3 µM. Besides, the GI50 is 25 µM with HCT-116 colon, 23.3 µM in the experiment with U251 CNS, 6.68 µM in the experiment on T-47D breast and 48.4 µM with NCI-H522 lung. The TGI in the experiment with MOLT-4 leukemia was over 100 µM; in the experiment on MDA-MB-231 breast, 71.2 µM; with TK-10 renal, 43.7 µM; with HS 578T breast, 60.3 µM; in the experiment with OVCAR-5 ovarian, over 100 µM; with OVCAR-8 ovarian, over 100 µM. In addition, the TGI was over 100 µM in the experiment on HCT-116 colon, 61.9 µM in the experiment with U251 CNS, over 100 µM in the experiment on T-47D breast and over 100 µM in the experiment on NCI-H522 lung.

On to `N#C/C(=C\c1cc2ccc(N3CCC3)cc2oc1=O)C(=O)N(CC(=O)O)CC(=O)O`, for which the GI50 with MOLT-4 leukemia, in the experiment on MDA-MB-231 breast, in the experiment on TK-10 renal, in the experiment on HS 578T breast, in the experiment with OVCAR-5 ovarian and in the experiment on OVCAR-8 ovarian was over 100 µM each time. For the same molecule, the GI50 in the experiment with HCT-116 colon, in the experiment with U251 CNS, in the experiment on T-47D breast and in the experiment with NCI-H522 lung was over 100 µM throughout. The TGI in the experiment with MOLT-4 leukemia, with MDA-MB-231 breast, in the experiment with TK-10 renal, in the experiment on HS 578T breast, in the experiment with OVCAR-5 ovarian and with OVCAR-8 ovarian was over 100 µM in each case. Also, the TGI in the experiment with HCT-116 colon, with U251 CNS, in the experiment with T-47D breast and with NCI-H522 lung was over 100 µM each time.

`CN1C(=NCCO)NS(=O)(=O)c2ccccc21`: the TGI with MOLT-4 leukemia, in the experiment on MDA-MB-231 breast, with TK-10 renal, with HS 578T breast, in the experiment on OVCAR-5 ovarian and with OVCAR-8 ovarian was over 100 µM in each case. In addition, the TGI with HCT-116 colon, in the experiment on U251 CNS, in the experiment with T-47D breast and in the experiment with NCI-H522 lung was over 100 µM throughout.

Consider `O=C(c1ccco1)c1c(C(F)(F)F)n([O-])c2cc(F)c(F)cc2[n+]1=O`, for which the GI50 in the experiment on MOLT-4 leukemia is 0.0867 µM; with MDA-MB-231 breast, 0.14 µM; in the experiment with TK-10 renal, 0.204 µM; in the experiment on HS 578T breast, 0.655 µM; in the experiment on OVCAR-5 ovarian, 0.67 µM; in the experiment on OVCAR-8 ovarian it was 0.412 µM. For the same molecule, the GI50 with HCT-116 colon is 0.149 µM; with U251 CNS it was 0.153 µM; in the experiment with T-47D breast, 0.782 µM; in the experiment on NCI-H522 lung it was 1.88 µM. The TGI was found to be 0.411 µM in the experiment with MOLT-4 leukemia; 0.313 µM in the experiment with MDA-MB-231 breast; 1.02 µM with TK-10 renal; 2.63 µM in the experiment on HS 578T breast; 2.38 µM with OVCAR-5 ovarian; 1.33 µM in the experiment with OVCAR-8 ovarian. For the same molecule, the TGI in the experiment with HCT-116 colon turned out to be 0.386 µM; in the experiment with U251 CNS, 0.291 µM; in the experiment on T-47D breast it was 22.7 µM; in the experiment with NCI-H522 lung, 5.47 µM.

As for `CCn1ccnc1C(=O)/C=C/c1ccc(CC(=O)Nc2ccc(F)cc2)cc1`, the GI50 in the experiment on MOLT-4 leukemia is 5.28 µM; with MDA-MB-231 breast it was 4.36 µM; with TK-10 renal, 6.01 µM; with HS 578T breast, 5.36 µM; in the experiment on OVCAR-5 ovarian, 4.97 µM; in the experiment on OVCAR-8 ovarian, 4.86 µM. The GI50 in the experiment with HCT-116 colon was 1.84 µM; in the experiment with U251 CNS it was 1.88 µM; with T-47D breast, 3.79 µM; in the experiment on NCI-H522 lung, 3.92 µM. Besides, the TGI was 14.5 µM in the experiment on MOLT-4 leukemia; over 16.7 µM in the experiment on MDA-MB-231 breast; over 16.7 µM with TK-10 renal; over 16.7 µM in the experiment on HS 578T breast; over 16.7 µM with OVCAR-5 ovarian; over 16.7 µM with OVCAR-8 ovarian. Besides, the TGI was 4.4 µM with HCT-116 colon, 7.94 µM in the experiment on U251 CNS, over 16.7 µM with T-47D breast and 10.2 µM with NCI-H522 lung.

Regarding `O=c1[nH]c(=S)[nH]c(-c2ccccc2)c1Cc1c(O)ccc2ccccc12`, the TGI is over 100 µM in the experiment on MOLT-4 leukemia; over 100 µM in the experiment with MDA-MB-231 breast; 59.3 µM in the experiment on TK-10 renal; over 100 µM in the experiment on HS 578T breast; over 100 µM with OVCAR-5 ovarian; over 100 µM in the experiment on OVCAR-8 ovarian. Further, the TGI is 74.4 µM in the experiment with HCT-116 colon, over 100 µM in the experiment with U251 CNS, 58 µM in the experiment on T-47D breast and over 100 µM in the experiment on NCI-H522 lung.
